Key:
HIV = test: in-vitro anti-HIV assay system as described in Mitsuya et al.; format: cell-based; details: for effective concentration: concentration of the drug at which effects were seen (3µM to 30µM)
Procedure: The anti-HIV activity of various compounds was tested using an in-vitro assay system as described in H Mitsuya et al; (Proc Natl. Acad.Sci. USA Vol 82 pp 7096-7100, October 1985).
From the information obtained the 50% effective dose (ED₅₀ value) was estimated and the results expressed as active (+) or very active (++).

[1] = standard LD50 test, intraperitoneal administration to mice; details: mouse, in vivo, ip, read-out: LD₅₀
Procedure: The toxicity of a representative number of compounds of the present invention was determined by using the standard LD₅₀ test.

**Q.** With `CCCn1c(=O)c2nc(-c3ccc(/C=C/C(=O)O)cc3)[nH]c2n(Cc2ccccc2)c1=O` [(E)-4-(3-Benzyl-1,2,3,6-tetrahydro-2,6-dioxo-1-propyl-9H-purin-8-yl)cinnamic acid] as the molecule, how does the effective concentration (HIV) read?
**A.** The effective concentration was 30 µM.

**Q.** With `Cn1c(=O)c2nc(-c3ccc(/C=C/C(=O)O)cc3)[nH]c2n(Cc2ccccc2)c1=O` [(E)-4-(3-benzyl-1,2,3,6-tetrahydro-1-methyl-2,6-dioxo-9H-purin-8-yl)cinnamic acid] as the molecule, how does the LD50 [1] read?
**A.** Its LD50 is over 100 mg/kg.

**Q.** Which LD50 [1] does the source give for `CCCCn1c(=O)n(C)c(=O)c2nc(-c3ccc(/C=C/C(=O)O)cc3)[nH]c21` [(E)-4-(3-butyl-1,2,3,6-tetrahydro-1-methyl-2,6-dioxo-9H-purin-8-yl)cinnamic acid] here?
**A.** The LD50 was over 100 mg/kg.

**Q.** With `CCCn1c(=O)n(Cc2ccccc2)c(=O)c2nc(-c3ccc(/C=C/C(=O)O)cc3)[nH]c21` [(E)-4-(1-Benzyl-1,2,3,6-tetrahydro-2,6-dioxo-3-propyl-9H-purin-8-yl)cinnamic acid] as the molecule, how does the effective concentration (HIV) read?
**A.** Its effective concentration is 30 µM.

**Q.** Which LD50 [1] does the source give for `Cn1c(=O)[nH]c(=O)c2nc(-c3ccc(/C=C/C(=O)O)cc3)[nH]c21` [(E)-4-(1,2,3,6-tetrahydro-3-methyl-2,6-dioxo-9H-purin-8-yl)cinnamic acid] here?
**A.** Its LD50 is over 500 mg/kg.

**Q.** Which effective concentration (HIV) does the source give for `O=C(O)/C=C/c1ccc(-c2nc3c(=O)n(Cc4ccccc4)c(=O)n(Cc4ccccc4)c3[nH]2)cc1` [(E)-4-(1,3-dibenzyl-1,2,3,6-tetrahydro-2,6-dioxo-9H-purin-8-yl)cinnamic acid] here?
**A.** The effective concentration was 3 to 15 µM.

**Q.** What about the anti-HIV activity (HIV; statement in words) of the same molecule?
**A.** Its anti-HIV activity is “particularly potent”.

**Q.** Which LD50 [1] does the source give for `CCCCn1c(=O)c2nc(-c3ccc(/C=C/C(=O)O)cc3)[nH]c2n(CCCC)c1=O` [(E)-4-(1,3-dibutyl-1,2,3,6-tetrahydro-2,6-dioxo-9H-purin-8-yl)cinnamic acid] here?
**A.** The LD50 was over 100 mg/kg.

**Q.** What about the effective concentration (HIV) of the same molecule?
**A.** Its effective concentration is 30 µM.

**Q.** For `CC(C)Cn1c(=O)n(C)c(=O)c2nc(-c3ccc(/C=C/C(=O)O)cc3)[nH]c21` [(E)-4-(1,2,3,6-tetrahydro-3-isobutyl-1-methyl-2,6-dioxo-9H-purin-8-yl)cinnamic acid], which LD50 [1] is on record?
**A.** The LD50 was over 100 mg/kg.

**Q.** With `CC(C)Cn1c(=O)[nH]c(=O)c2nc(-c3ccc(/C=C/C(=O)O)cc3)[nH]c21` [(E)-4-(1,2,3,6-tetrahydro-3-isobutyl-2,6-dioxo-9H-purin-8-yl)cinnamic acid] as the molecule, how does the LD50 [1] read?
**A.** Its LD50 is over 100 mg/kg.

Reference: patent EP0243192B1, “Antiviral 8-Phenylxanthines” (THE WELLCOME FOUNDATION LIMITED, priority 1986, dated 1987)
